These results are taken from patent publication US5593656A, “Metal-binding targeted polypeptide constructs” (Cytogen Corporation, priority 1995, dated 1997).

In assay [1] the target is T1, I-125-GRP binding to NIH-3T3 cells (Mus musculus, UniProt P21729).
T1 construct: Murine NIH-3T3 fibroblast cells (ATCC No. CCL92) were released from flasks; endogenous in cells; host or cells: NIH-3T3 murine fibroblasts (ATCC No. CCL92), whole cells
Kind of assay: In vitro receptor binding assay: inhibition of binding of I-125-GRP to NIH-3T3 cells. Set-up: species or system Murine. The note with it: for IC50: […] 125I-GRP, 30 min RT, read-out: IC50, inhibition of binding of labeled GRP to NIH-3T3 cells; for Binding of competing ligand relative to control ligand Neuromedin C: competition with 125I-GRP. Here is the method: Murine NIH-3T3 fibroblast cells (ATCC No. CCL92) were released from flasks with EDTA harvest buffer, consisting of 0.6 mm EDTA, 25 mm PBS (8 g NaCl, 0.2 g KCl, 1.44 g Na2 PO4, 0.2 g KH2 PO4 per liter), pH 7.4, 37° C., by incubation for 15 min.
The cells were washed twice with Assay Buffer (50 mM Tris-HCl, 100 mM NaCl, 0.1% BSA, 0.1 mg/mL bacitracin, 0.05 mg/mL aprotinin, 1 mM PMSF), pH 7.4, 4° C. and resuspended at a density of 3×10^6 cells/mL.
A 0.5 mL Eppendorf tube was prepared for each assay point by incubating the tube overnight with a blocking solution of 1% BSA, 50 mM Tris. HCl, 100 mM NaCl, pH 7.4. The blocking solution was removed.
Each tube was charged with 4×10^4 cells. […] Three control tubes with no cells or competitor were prepared for measurement of total counts added.
The samples were incubated for 30 min at RT. The contents of each tube were transferred into the wells of a 96-well filter bottom plate (Millipore Multiscreen, Arlington Heights, Mass.) and filtered under moderate vacuum (water aspirator). Each filter was washed three times by filling each well with ice cold PBS, Ph 7.4, 0.1% BSA. The plate was allowed to dry. Dried filters were placed into gamma-counter tubes (12×75 mm glass). The radioactivity on each filter and in the control tubes was counted using a LKB gamma counter. The bound/total added for each assay tube was calculated.

Assay [2] relates to HT-29 colon carcinoma xenograft tumors. The following applies: Tc-99m labeled, i.v., 22 hours after injection.
Experimental: Biodistribution and imaging studies were conducted using female Nu/Nu HT-29 xenograft tumor-bearing mice, a model for colon carcinoma. […] Two μg of the test compounds were labeled with 100 μCi of Tc-99m and each was injected into 10 Nu/Nu mice bearing HT-29 tumors on the flank. The organs of interest were removed from half the mice at 3 hr, and the organs of the remaining mice were removed at 22 h. Each set of organs were counted for gamma radiation.
Twenty μg of each construct was dissolved in 20 mM sodium acetate, pH 4.5, at a minimum concentration of 30 μg/mn. The pH was checked and adjusted as necessary. A 50 mCi vial of ^99m TcO4 Na (Syncor) was added to a vial of Glucoscan® (Dupont) in a leaded glass shield using a shielded tuberculin syringe. 100 μL of the resulting solution was dose calibrated, and the volume required for 20 doses of 100 μCi was calculated (ca. 40-45 μL). This amount was divided into two equal parts and added to the two solutions of construct in microfuge tubes and incubated for 1 h at 37° C. Percent chelation was checked by chromatography on ITLC developed with 0.9% saline, and analyzed by autoradiography counter. The two solutions were diluted to 2.2 mL each with 0.9% saline. The diluted solutions werethen divided into numbered tuberculin syringes (200 μL each). […]
Dissected tissues were weighed, and their content of Tc-99m was determined by gamma counting.

T1 sequence (P21729 whole entry): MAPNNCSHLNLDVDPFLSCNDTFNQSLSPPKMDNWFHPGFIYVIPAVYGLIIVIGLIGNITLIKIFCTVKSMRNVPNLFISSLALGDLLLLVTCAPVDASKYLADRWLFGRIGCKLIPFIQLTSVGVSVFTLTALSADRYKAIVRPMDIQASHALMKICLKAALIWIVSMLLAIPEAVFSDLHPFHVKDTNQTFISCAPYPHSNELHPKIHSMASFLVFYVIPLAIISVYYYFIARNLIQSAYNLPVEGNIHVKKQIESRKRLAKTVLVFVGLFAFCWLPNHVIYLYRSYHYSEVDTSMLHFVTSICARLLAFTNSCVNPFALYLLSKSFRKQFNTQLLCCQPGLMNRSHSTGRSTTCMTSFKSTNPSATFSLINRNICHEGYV

What is called IC50 is the concentration at which inhibition is half-maximal. Turning to “Benzoic acid bis-thiosemicarbazide derived from N-acetyl-Neuromedin C-hydrazide [Compound 6]”, in assay [1], the IC50 amounted to 43.3 nM and the “Binding of competing ligand relative to control ligand Neuromedin C” value is recorded as “within an order of magnitude of the control ligand Neuromedin C”. In assay [2], the “Localization to HT-29 tumors” value is given as “evident”.
With “Benzoic acid bis-thiourea derived from Neuromedin-C [Compound 3]”, in assay [1], the IC50 worked out at 10.6 nM and the “Binding of competing ligand relative to control ligand Neuromedin C” value is recorded as “within an order of magnitude of the control ligand Neuromedin C”. The “Localization to HT-29 tumors” value in assay [2] is reported as “evident”.
